Laboratory results from patent US7947726B2, “Non-steroidal ligands for the glucocorticoid receptor, and compositions thereof” (The Regents of the University of California, priority 2002, dated 2011).
pEC50: −log10 of the molar value.

Experiments:
[1] = molecular target: T1, AR (Homo sapiens, UniProt P10275); test: AR activation (max fold activation); type: cell-based; settings: Table 4
T1 sequence (P10275 1-920): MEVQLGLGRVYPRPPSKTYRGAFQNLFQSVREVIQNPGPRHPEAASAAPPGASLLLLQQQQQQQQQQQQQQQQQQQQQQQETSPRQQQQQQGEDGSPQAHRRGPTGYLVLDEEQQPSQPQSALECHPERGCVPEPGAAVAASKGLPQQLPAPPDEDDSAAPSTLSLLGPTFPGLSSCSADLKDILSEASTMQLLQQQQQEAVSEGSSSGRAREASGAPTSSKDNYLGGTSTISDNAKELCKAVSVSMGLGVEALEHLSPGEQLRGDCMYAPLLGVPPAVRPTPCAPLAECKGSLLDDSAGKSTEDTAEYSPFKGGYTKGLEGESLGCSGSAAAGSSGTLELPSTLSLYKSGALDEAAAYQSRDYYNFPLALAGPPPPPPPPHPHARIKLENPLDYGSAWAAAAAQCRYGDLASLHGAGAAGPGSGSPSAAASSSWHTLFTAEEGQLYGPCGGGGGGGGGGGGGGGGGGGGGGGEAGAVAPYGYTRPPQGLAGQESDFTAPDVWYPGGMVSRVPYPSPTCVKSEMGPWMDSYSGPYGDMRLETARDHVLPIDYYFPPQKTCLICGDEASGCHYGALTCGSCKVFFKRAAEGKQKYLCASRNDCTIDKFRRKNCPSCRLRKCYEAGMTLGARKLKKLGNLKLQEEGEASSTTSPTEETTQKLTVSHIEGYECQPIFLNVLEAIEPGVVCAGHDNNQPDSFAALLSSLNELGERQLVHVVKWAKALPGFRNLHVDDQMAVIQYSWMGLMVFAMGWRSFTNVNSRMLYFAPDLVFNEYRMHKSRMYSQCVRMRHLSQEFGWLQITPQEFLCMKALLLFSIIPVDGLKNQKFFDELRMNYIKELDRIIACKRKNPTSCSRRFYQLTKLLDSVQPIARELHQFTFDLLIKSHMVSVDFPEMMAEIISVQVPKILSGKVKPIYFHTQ

[2] = test system: NF-κB; test: NF-κB repression luciferase assay in A549 cells; type: cell-based, human; settings: Table 5, TNF-α-stimulated A549 cells
From the text: Plasmids for GR (human, pSG5 backbone), AP1-Luc (synthetic AP1 response element upstream of a firefly luciferase gene), TAT3-Luc (three copies of the tyrosine aminotransferase glucocorticoid response element upstream of a firefly luciferase gene), β-galactosidase (used as a transfection control), as well as two stable transfected cells lines: an A549 (human, lung carcinoma) cell line stably transfected with a κB response element upstream of a firefly luciferase gene, (R. M. Nissen et al., Genes Dev., 14(18):2314-29, (2000)) and a U2OS (human, osteosarcoma) stably transfected with rat GR (I. Rogatsky, et al., Mol. Cell. Biol., 1997, 17, 3181-3193) were a gift of Professor Keith Yamamoto (Department of Biochemistry, University of California, San Francisco).
For NF-κB repression assays, A549 cells stably transfected with a luciferase reporter were grown under the same conditions as CV-1 cells. 50,000 cells/well were plated into 96 well plates and incubated for 12 h at 37° C. Either TNF-α alone or mixed with various hormone dilutions in media were then added to the cells, which were then incubated for 8 hours. Procedures for lysis and luciferase assay were performed as previously described. Protein content was used as a control in this case and the recommended procedures using the BCA Protein Assay Kit (Roche) were followed.

Compound | AR max fold activation [1] | pEC50 ([2]; Homo sapiens, read-out: Repression NF-KB pot (EC50)) | Repression NF-KB % max repression [2] [%]
Cc1cc(O)cc(C)c1C(O)C1CCCC2=Cc3c(cnn3-c3ccc(F)cc3)CC21C (stereo not drawn) [Compound 227, 4-{[1-(4-Fluoro-phenyl)-4a-methyl-4,4a,5,6,7,8-hexahydro-1H-benzo[f]indazol-5-yl]-hydroxy-methyl}-3,5-dimethyl-phenol] | 4.6 ± 1.6 |  | 
CC12Cc3cnn(-c4ccc(F)cc4)c3C=C1CCCC2C(O)c1cccc2[nH]ccc12 (stereo not drawn) [Compound 237, [1-(4-Fluoro-phenyl)-4a-methyl-4,4a,5,6,7,8-hexahydro-1H-benzo[f]indazol-5-yl]-(1H-indol-4-yl)-methanol] |  | 7.58 | 74
